Tests used:
A. viscosus = assay: Growth inhibition of A. viscosus over 24 hours (bacterial optical density); type: cell-based; settings: for Bacterial optical density, 4 h / Bacterial optical density, 22 h / Bacterial optical density, 24 h / Bacterial optical density, 0 h: 500 μl test sample added to 9.5 ml A. viscosus in TSB, 3 replicates; for Bacterial optical density, 0 h: initial O.D.
From the text: Bacterial optical density was captured every at 0, 4, 22 and 24 hrs.

3-day biofilm = assay: Design-of-experiments statistical analysis / D-Optimal Design prediction of 3-day biofilm removal; settings: glycerin 10%, propylene glycol 5%; for Percent biofilm removal: sorbitol 10%; for Percent biofilm removal if sorbitol at 20%: sorbitol 20%
Method: A statistical design-of-experiments (DOE) approach was used to develop prototype mouth rinse formulations for biofilm removal. An 8 factor design was used. A mouth rinse was used a base formulation (see Table 3). […] The influence of the anti-bacterial agent cetyl pyridinium chloride (CPC) on biofilm removal was also evaluated. The sweetener sucralose and the flavor were at kept constant concentration in all the formulations.

[1] = test system: biofilm of artificial mouth consortium (A. naeslundii, S. oralis, V. parvula, L. casei, F. nucleatum) of bacteria with S. mutans; assay: In vitro biofilm removal: 3-day old multispecies oral biofilm on saliva-coated 24 well plate, optical density at 610 nm, % reduction from water control; settings: for impact on biofilm removal (in words): ingredient effect in mouthrinse formulations, 3-day old in-vitro oral biofilm; for % removal in High humectant mouthwash / % removal in Low humectant mouthwash: 3-day old biofilm

CC(=O)[O-].CCn1cc[n+](C)c1 [EMIM acetate] was tested. Which “Bacterial optical density, 4 h” value (A. viscosus) did it give?
The value was 0.2324.

And the “Bacterial optical density, 22 h” value (A. viscosus)?
The value was 0.7942.

What about the “Bacterial optical density, 24 h” value (A. viscosus) of the same molecule?
Its value is 0.8223.

And the “Bacterial optical density, 0 h” value (A. viscosus)?
The value was 0.1482.

With “1-ethy1-3-methylimidazolium (EMIM) bromide” as the molecule, how does the “Bacterial optical density, 4 h” value (A. viscosus) read?
The value was 0.2216.

And the “Bacterial optical density, 22 h” value (A. viscosus)?
Its value is 0.7598.

What about the “Bacterial optical density, 24 h” value (A. viscosus) of the same molecule?
The value was 0.8533.

And the “Bacterial optical density, 0 h” value (A. viscosus)?
The value was 0.1482.

Which results are given for OC[C@@H](O)[C@@H](O)[C@H](O)[C@@H](O)CO [sorbitol]?
increase in biofilm removal (3-day biofilm; 20% sorbitol in the formulations): ~5%; impact on biofilm removal (in words) [1]: increases the percent of biofilm removal

For Choline acetate, which “Bacterial optical density, 4 h” value (A. viscosus) is on record?
The value was 0.2559.

What about the “Bacterial optical density, 22 h” value (A. viscosus) of the same molecule?
Its value is 0.9480.

What about the “Bacterial optical density, 24 h” value (A. viscosus) of the same molecule?
The value was 1.0385.

What about the “Bacterial optical density, 0 h” value (A. viscosus) of the same molecule?
Its value is 0.1482.

C[N+](C)(C)CCO.[Cl-] [Choline chloride] was tested. Which “Bacterial optical density, 4 h” value (A. viscosus) did it give?
The value was 0.2445.

What about the “Bacterial optical density, 22 h” value (A. viscosus) of the same molecule?
Its value is 1.0236.

What about the “Bacterial optical density, 24 h” value (A. viscosus) of the same molecule?
Its value is 1.0674.

What about the “Bacterial optical density, 0 h” value (A. viscosus) of the same molecule?
The value was 0.1482.

How did the “impact on biofilm removal (in words)” value [1] turn out when OCC(O)CO [glycerin] was run?
Its value is “increases the percent of biofilm removal”.

Which “Bacterial optical density, 4 h” value (A. viscosus) does the source give for “1,2,4-trimethyl-pyrazolium methylsulfate” here?
The value was 0.1978.

And the “Bacterial optical density, 22 h” value (A. viscosus)?
Its value is 0.8519.

What about the “Bacterial optical density, 24 h” value (A. viscosus) of the same molecule?
Its value is 1.0042.

And the “Bacterial optical density, 0 h” value (A. viscosus)?
The value was 0.1482.

C=CCn1cc[n+](C)c1.[Cl-] [1-ally1-3-methylimidazolium (AMIM) chloride] was tested. Which “Bacterial optical density, 4 h” value (A. viscosus) did it give?
Its value is 0.2265.

And the “Bacterial optical density, 22 h” value (A. viscosus)?
Its value is 0.7091.

What about the “Bacterial optical density, 24 h” value (A. viscosus) of the same molecule?
Its value is 0.8440.

And the “Bacterial optical density, 0 h” value (A. viscosus)?
Its value is 0.1482.

What does the source list for C[N+](C)(C)CCO.O=C([O-])c1ccccc1O [Choline salicylate, choline salicylate]?
Bacterial optical density, 4 h (A. viscosus): 0.1523; Bacterial optical density, 22 h (A. viscosus): 0.1542; Bacterial optical density, 24 h (A. viscosus): 0.1539; growth inhibition of A. viscosus (in words) (A. viscosus; formulated at 10% concentration in a mouth rinse): greater growth inhibition of A. viscosus than does a mouthrinse which contains 0.075% cetyl pyridinium chloride; Bacterial optical density, 0 h (A. viscosus): 0.1482; Percent biofilm removal (3-day biofilm; choline salicylate 10, TRIS 0): 48%; Percent biofilm removal if sorbitol at 20% (3-day biofilm; choline salicylate 10, TRIS 0): 53%; Percent biofilm removal (3-day biofilm; choline salicylate 20, TRIS 0): 61%; Percent biofilm removal if sorbitol at 20% (3-day biofilm; choline salicylate 20, TRIS 0): 66%

Which “Bacterial optical density, 4 h” value (A. viscosus) does the source give for C[N+](CCO)(CCO)CCO [Tris-HMAM, tris (2-hydroxyethyl) methylammonium methylsulfate] here?
The value was 0.2605.

What about the “Bacterial optical density, 22 h” value (A. viscosus) of the same molecule?
Its value is 0.8415.

What about the “Bacterial optical density, 24 h” value (A. viscosus) of the same molecule?
The value was 0.9087.

What about the “Bacterial optical density, 0 h” value (A. viscosus) of the same molecule?
The value was 0.1482.

And the Percent biofilm removal (3-day biofilm; choline salicylate 0, TRIS 10)?
Its Percent biofilm removal is 47%.

And the “Percent biofilm removal if sorbitol at 20%” value (3-day biofilm; choline salicylate 0, TRIS 10)?
Its value is 52%.

What about the Percent biofilm removal (3-day biofilm; choline salicylate 0, TRIS 20) of the same molecule?
Its Percent biofilm removal is 60%.

And the “Percent biofilm removal if sorbitol at 20%” value (3-day biofilm; choline salicylate 0, TRIS 20)?
Its value is 65%.

And the “% removal in High humectant mouthwash” value ([1]; 1% Tris-HMAM)?
The value was 39.0%.

And the “% removal in Low humectant mouthwash” value ([1]; 1% Tris-HMAM)?
The value was 25.6%.

What about the “% removal in High humectant mouthwash” value ([1]; 2.5% Tris-HMAM) of the same molecule?
The value was 50.5%.

What about the “% removal in Low humectant mouthwash” value ([1]; 2.5% Tris-HMAM) of the same molecule?
Its value is 28.2%.

And the “% removal in High humectant mouthwash” value ([1]; 5% Tris-HMAM)?
Its value is 53.9%.

What about the “% removal in Low humectant mouthwash” value ([1]; 5% Tris-HMAM) of the same molecule?
Its value is 30.9%.

What about the “% removal in High humectant mouthwash” value ([1]; 10% Tris-HMAM) of the same molecule?
The value was 57.7%.

What about the “% removal in Low humectant mouthwash” value ([1]; 10% Tris-HMAM) of the same molecule?
Its value is 46.8%.

What about the “% removal in High humectant mouthwash” value ([1]; 20% Tris-HMAM) of the same molecule?
Its value is 71.1%.

What about the “% removal in Low humectant mouthwash” value ([1]; 20% Tris-HMAM) of the same molecule?
The value was 57.3%.

And the “% removal in High humectant mouthwash” value ([1]; 40% Tris-HMAM)?
Its value is 73.2%.

And the “% removal in Low humectant mouthwash” value ([1]; 40% Tris-HMAM)?
Its value is 67.1%.

And the “impact on biofilm removal (in words)” value [1]?
The value was “enhances biofilm removal”.

How did the “impact on biofilm removal (in words)” value [1] turn out when CC(O)CO (stereo not drawn) [propylene glycol] was run?
The value was “increases the percent of biofilm removal”.

With “1-buty1-3-methylimidazolium (BMIM) bromide” as the molecule, how does the “Bacterial optical density, 4 h” value (A. viscosus) read?
Its value is 0.2373.

And the “Bacterial optical density, 22 h” value (A. viscosus)?
Its value is 0.5994.

And the “Bacterial optical density, 24 h” value (A. viscosus)?
Its value is 0.8244.

What about the “Bacterial optical density, 0 h” value (A. viscosus) of the same molecule?
Its value is 0.1482.

How did the “Bacterial optical density, 4 h” value (A. viscosus) turn out when CCOS(=O)(=O)[O-].CCn1cc[n+](C)c1 [EMIM ethylsulfate] was run?
Its value is 0.2499.

What about the “Bacterial optical density, 22 h” value (A. viscosus) of the same molecule?
Its value is 0.7514.

What about the “Bacterial optical density, 24 h” value (A. viscosus) of the same molecule?
The value was 0.7965.

And the “Bacterial optical density, 0 h” value (A. viscosus)?
Its value is 0.1482.
